The source of these data is PMC12769565, “Design, synthesis and biological activity of glycoconjugated ADAMTS5 exosite inhibitors: applications in osteoarthritis and ovarian cancer models” (Scientific Reports, 2025).

In brackets after ≈: the same amount, converted by molar mass.

Data set [1] deals with A2780 OC cells over-expressing Rab25. As to the kind of experiment: OC cell migration on cell-derived matrix (pseudopod length, directionality, velocity). It is filed as cell-based. Particulars: cells on CDM. As for the experimental part: A2780 OC cells over-expressing Rab25 (A2780-Rab25), generated in G. Mills lab[71], and telomerase-immortalised human fibroblasts (TIFs) were a gift from Jim Norman lab (CRUK Scotland Institute). A2780-Rab25 cells were grown in RPMI media (Gibco), supplemented with 10% (v/v) FBS. TIFs were grown in DMEM, supplemented with 10% FBS. To maintain Rab25 over-expression, A2780-Rab25 cells were selected with 0.4 mg/ml G418 every 10 passages.
CDMs were generated as previously described[72] in 12 well plates. Wells were coated with 0.2% gelatin for 60 min at 37 °C, crosslinked with 1% glutaraldehyde for 30 min at room temperature, quenched with 1 M glycine for 20 min at room temperature and equilibrated in DMEM for 30 min at 37 °C. TIFs (2.5 × 10^5 per well) were seeded for 24 h to achieve confluency and grown in the presence of 50 µg/ml ascorbic acid for 9 days. CDMs were washed with PBS, incubated with extraction buffer (20 mM NH4OH, 0.5% Triton X-100 in PBS with Ca^2+ and Mg^2+) for ~ 2 min, until no intact cells were visible by phase, washed twice with PBS with Ca^2+ and Mg^2+ and treated with 15 µg/ml DNase for 1 h at 37 °C, 5% CO2. CDMs were washed twice with PBS with Ca^2+ and Mg^2+ and stored in PBS with Ca^2+ and Mg^2+ at 4 °C for up to one month.
A2780-Rab25 cells (5 × 10^4 per well) were seeded onto a CDM-coated 12-well plate. Compound 2 was added 4 h after plating. Plates were imaged in a Nikon Inverted Ti eclipse microscope with Oko-lab environmental control chamber with a 10x/NA 0.45 objective. Cells were incubated at 37 °C and 5% CO2, images were acquired every 10 min for 12 h and more than 40 cells per well were quantified per biological replicate. Individual cell migration was manually tracked using MTrack2, a Fiji/ImageJ plugin. The chemotaxis tool plugin in Fiji/Image J (https://ibidi.com/chemotaxis-analysis/171-chemotaxis-and-migration-tool.html) was used to calculate the velocity and directionality of migrating cells.

Data set [2] can be described thus: Solubility determination in PBS by UV-Vis absorbance at 284 nm. The format is physicochemical. To be noted: PBS buffer, aqueous buffer, kinetic from dmso stock, pH 7.4, room temperature, read-out: upper solubility limit. As for the experimental part:
The solubility of compounds 4b and 2 was assessed in PBS at pH 7.4 and room temperature. Stock solutions of the compounds (10 mM in DMSO) were diluted in PBS buffer to achieve final concentrations between 1,000 µM − 12.5 µM. Two-hundred microliters of the proper compound solutions in PBS buffer were added in a 96-well plate, and the absorbance was measured at 284 nm using a SPECTROstar Nano UV-Vis spectrophotometer (220–1,000 nm, Ortenberg, Germany). Analyses were performed in triplicate, and the mean value was calculated for each sample.

Data set [3] deals with human OA cartilage explants. The experiment in a line: Aggrecan fragments released from human OA cartilage (anti-AGEG immunoblot). Particulars: 48 h, anti-AGEG neoepitope, read-out: inhibition of aggrecan degradation. The format is cell-based. The procedure:
Samples were separated by SDS-PAGE under reducing conditions (5% β-mercaptoethanol) on BOLT, 4–12%, Bis-Tris Gels (Invitrogen) in MES Running Buffer (NuPAGE). Proteins were transferred onto a nitrocellulose membrane using Trans-Blot Turbo™ Transfer System (BioRad), at 25 V, 2.5 A for 30 min. Membranes were blocked with 3% BSA/PBS for 1 h at room temperature. Aggrecan fragments generated by ADAMTS cleavage at E^392-A^393[8] or E^1953-A^1954[68] were detected using mouse monoclonal anti-ARGSV antibody (BC3, Life Technologies, MA3-16888, 4 µg/ml) or polyclonal anti-AGEG neoepitope antibody (serum, 1:200 dilution)[12],[33], respectively, followed by the appropriate horseradish peroxidase (HRP)-conjugated secondary antibodies (polyclonal Goat Anti-Mouse P0447, 0.1 ng/µl and polyclonal Goat Anti-Rabbit, P0448, 0.03 ng/µl, both from Agilent Technologies LDA UK Ltd). All antibodies were diluted in 0.5% bovine serum albumin (BSA)/PBS. Washes between each step were carried out in triplicate, for 15 min each, with PBS-Tween (0.1%). Following addition of the chemiluminescent HRP substrate (Millipore, WBKL30500) membranes were imaged using Bio-Rad Chemidoc Touch Imaging System. Analysis was carried out using BioRad ImageLab software (version 5.2.1) using sequential exposures to avoid saturation artifacts. Figures for unprocessed blots are included in Supplementary information Fig. S4 and Fig. S5 with highlighted regions (in red boxes) corresponding to the data reported in the main manuscript figures.
Human OA cartilage was obtained from Clatterbridge Hospital, Wirral, UK, following total knee arthroplasty procedures with informed patient consent in full compliance with national and institutional ethical requirements, the United Kingdom Human Tissue Act, and the Declaration of Helsinki (REC 18/WA/0344). […]
Explants were incubated in 0.2 ml of fresh DMEM containing compound 2 (10 or 100 µM) or 4b (10 µM) for 48 h. […] Proteins were precipitated using ice-cold acetone, dissolved in the SDS-sampling buffer and then analyzed by immunoblot using anti-AGEG aggrecan neoepitope antibody as before.

The subject of data set [4] is human non-OA chondrocytes. As to the kind of experiment: Cell viability MTS assay. Particulars: 72 h, vs DMSO control. It is filed as cell-based. The procedure:
Non-OA human chondrocytes were isolated from knee cartilage tissues obtained from the Stanmore BioBank, Institute of Orthopaedics, Royal National Orthopaedic Hospital, Stanmore, UK, from 3 donors following informed consent and approval by the Royal Veterinary College Ethics and Welfare Committee (Institutional approval URN 2012 0048 H) as before.
Cell viability was assessed using CellTiter® 96 Aqueous One Solution Cell Proliferation Assay (Promega, G3582) following the manufacturer’s protocol. The assay is based on the reduction of [3-(4,5-dimethylthiazol-2-yl)-5-(3-carboxymethoxyphenyl)-2-(4-sulfophenyl)-2 H-tetrazolium] (MTS) and phenazine ethosulfate into formazan. Compounds 2 and 4b, GM6001 (Merck, 364206) (10–100 µM), or DMSO control were incubated in 48-well Nunc™ plates (Thermo Fisher Scientific,150687) with HEK293T cells, human non-OA chondrocytes, porcine cartilage explants, or human OA cartilage explants for 72 h. At least 3 independent experiments were carried out with 3 technical replicates each. For experiments involving human samples, independent experiments were carried out on 3 different donors. Absorbance at 490 nm was measured on a SpectraMax i3x Multi-Mode Platform (Molecular Devices). Cell viability was normalized to DMSO controls.
Background: Formazan colour is commonly taken as a measure of viable cells.

Setting [5] is: tested at 10 or 50 µM, concentration of this value not stated.

Usually solubility stands for the concentration that dissolves in the medium under given conditions. Usually inhibition stands for the relative decrease from the control value, in per cent.

Regarding `CCC(C)N(Cc1cn(CCCO[C@@H]2O[C@H](CO)[C@@H](O[C@@H]3O[C@H](CO)[C@H](O)[C@H](O)[C@H]3O)[C@H](O)[C@H]2NC(C)=O)nn1)S(=O)(=O)c1ccc(-c2ccccc2)cc1` (stereo partly drawn) [compound 2, N-((2R,3R,4R,5 S,6R)-2-(3-(4-((N-(sec-butyl)-[1,1’-biphenyl]-4-sulfonamido)methyl)-1H-1,2,3-triazol-1-yl)propoxy)-4-hydroxy-6-(hydroxymethyl)-5-(((2 S,3R,4 S,5R,6R)-3,4,5-trihydroxy-6-(hydroxymethyl)tetrahydro-2 H-pyran-2-yl)oxy)tetrahydro-2 H-pyran-3-yl)acetamide], the “velocity of cell migration” value in data set [1] (10 or 50 µM) is on record as “without affecting”. The “inhibition in directionality of cell migration” value in data set [1] (setting [5]) is listed as 43%. In addition, in data set [1] (setting [5]), the “inhibition in pseudopod elongation” value came out at 35%. For the same molecule, the solubility in data set [2] came to 300 µM (≈ 238 µg/mL). The inhibition at 10 µM in data set [3] (10 µM) was 63%. Moreover, in data set [3] (100 µM), the inhibition at 100 µM was determined as 85%. Further, the “inhibition of cell viability” value in data set [4] (50 µM) and in data set [4] (100 µM) was “No significant effect” in each case.
